Experimental data taken from US5011828A, “Immunostimulating guanine derivatives, compositions and methods” (priority 1988, dated 1991).

Tests used:
[1] = test system: murine lymphocytes (sheep red blood cells as antigen); assay: Antigen-specific adjuvanticity: direct anti-SRBC plaque forming cells, murine system; format: cell-based, mouse
Text: ^1 Adjuvanticities against sheep red blood cells [SRBC] measured in
direct plaqueforming cells per culture of lymphocytes from the mouse
strains shown. Details of the procedure are provided in the Materials and
Methods Section. Standard errors from the enumerated mean values are show
A large number of comparisons of adjuvanticity using human and murine lymphocytes as the source of leukocytes have been carried out using compounds of the present invention, as well as with new compounds excluded from the present invention. […] Interstudy comparisons are however useful for showing trends and large differences. Tables 5, 6 and 7, hereinafter, provide exemplary data from such studies in which only the activity at the peak concentration is shown for each compound and the results for the controls are omitted.
Lymphocyte cultures. The serum-containing culture medium water prepared to contain the following per 100 milliliters: 91.9 milliliters RPMI 1640 (Flow Laboratories, Inc., Rockville, Md.), 0.1 milliliters of 100×glutamine, 1.0 milliliter of 100×sodium pyruvate, 1 0 milliliter of 50×nonessential amino acids, 1.0 milliliter of water containing 10^4 units of penicillin G and 10^4 micrograms of streptomycin, and 5.0 milliliters of a supportive lot of fetal calf serum (FCS). These ingredients were admixed to apparent homogeneity. Spleen cell suspensions and populations enriched for splenic B cells were prepared as described in Goodman et al., J. Immunol., 121:1905 (1978).
For evaluation of the primary humoral immune response to sheep erythrocytes (SRBC), 5×10^6 to 10^7 murine spleen cells were cultured in 1.0 milliliter of 5% FCS-containing medium for 4 or 5 days in the presence and absence of immunogen. Cells were incubated in culture trays (Costar, Cambridge, Mass.) at 37° C. in a humidified atmosphere of 10% CO2 in air using tissue culture boxes (CBS Scientific, Del Mar, Calif.) that were rocked at a frequency of 7 cycles per minute. Pooled SRBC are available from the Colorado Serum Co., Denver Colo.
(§1) Assay of plaque forming cells (PFC). PFC secreting antibodies against SRBC were evaluated after 4 or 5 days of culture using a modification of the hemolytic plaque assay of Jerne and Nordin, Science, 140:405 (1963). The cells were brought up in complete medium before plaquing; they were plaqued in standard low Mr agarose (Bio-Rad Laboratories, Richmond Calif.), and were incubated in SRBC-absorbed guinea pig complement for one hour after a 1.5 hour incubation without complement.

[2] = test system: human peripheral blood lymphocytes (sheep red blood cells as antigen); assay: Antigen-specific adjuvanticity: direct anti-SRBC plaque forming cells, human system; format: cell-based
Protocol: ^1 Studies were carried in a manner similar to those of Table 1,
except that a human lymphocyte preparation was used.
The results shown in Table 7, below, were obtained similarly to those discussed above, but using human lymphocytes. Some of those studies utilized lymphocytes from more than one individual, and are therefore reported with multiple entries.
Human peripheral blood lymphocytes (PBL) were prepared from normal heparinized venous blood by Ficoll-diatrizoate density gradient centrifugation. PBL were depleted of suppressor T cells bearing the histamine type 2 receptor by adhering them to the surfaces of histamine-rabbit serum albumin-coated plastic petri dishes (Cell-ect No. 2 kit; Seragen, Boston, Mass.) and by recovering the nonadherent cells by panning as described by Wysocki and Sato, Proc. Natl. Acad. Sci. USA, 75:2844 (1978) and modified by Cavagnaro and Osband, Biotechniques, January/February:30 (1983).
The tissue culture medium employed in these studies for human lymphocytes was prepared as follows: One hundred milliliters (ml) contained 87.9 ml RPMI 1640 (Flow Laboratories, Rockville, Md.), 0.1 ml 100×glutamine,1.0 ml of 1.0 M HEPES buffer (Microbilogical Associates, Betheseda, Md.), 1.0 ml of water containing 10^4 U of penicillin G and 10^4 micrograms of streptomycin, and 10 ml of fresh autologous heat-inactivatedplasma. For evaluation of the primary humoral immune response to SRBC, lymphoid cells prepared as above were cultured at a density of 2×10^6 /ml in a volume of 1.0 ml containing 5×10^6 SRBC as antigen (Colorado Serum Co., Denver, Colo.) together with IL-2 (a partially purified preparation of human IL-2 that was free of interferon-gamma activity was obtained from Electro-Nucleonics, Inc., Silver Spring, Md.) and the guanine nucleoside derivative.
as §1

murine spleen cells = assay: Mitogenicity: [3H]TdR uptake, murine system; format: cell-based, mouse
Text: ^1 Mitogenicity measured by the uptake of [^3 H]TdR
(tritiumlabeled thymidine deoxyribonucleoside) as determined by measuring
counts per minute (cpm) per cell culture using the conditions discussed i
the Materials and Methods Section.

Row | SMILES | Direct Anti-SRBC PFC/Culture ([1]; Table 8, 1 × 10^-5 M) [PFC/Culture] | peak concentration lower than comparison compound ([1]; murine system (Table 5), vs 8-BrGuo) [log units] | Peak Direct anti-SRBC PFC/Culture ([2]; Table 7, later studies, single preparation) [PFC/Culture] | [3H] TdR Uptake (murine spleen cells; Table 4, 3 × 10^-4 M) | [3H] TdR Uptake (murine spleen cells; Table 4, 10^-3 M) | [3H] TdR Uptake (murine spleen cells; Table 4, 10^-4 M) | Peak Direct anti-SRBC PFC/Culture ([1]; Table 5, murine system, at peak concentration) [PFC/Culture] | Average 1 Log Plaque Values ([1]; Table 9, murine, * = single study) | Average 1 Log Plaque Values ([2]; Table 9, human, * = single study) | peak adjuvanticity values greater as compared to 7m8oGuo ([2]; human system (Table 3)) | Direct Anti-SRBC PFC/Culture ([1]; Table 1, CBA/CaJ, 3 × 10^-4 M) [PFC/Culture] | Direct Anti-SRBC PFC/Culture ([1]; Table 1, CBA/CaJ, 10^-3 M) [PFC/Culture] | Direct Anti-SRBC PFC/Culture ([1]; Table 1, CBA/CaJ, 10^-4 M) [PFC/Culture] | adjuvanticity, in words ([1]; murine system) | [3H] TdR Uptake (murine spleen cells; Table 2, 10^-3 M) | [3H] TdR Uptake (murine spleen cells; Table 2, 10^-4 M) [cpm/culture]
1 | CCn1c(=O)n([C@@H]2O[C@H](CO)[C@@H](O)[C@H]2O)c2nc(N)[nH]c(=O)c21 [compound 23643, 7-Ethyl-8-oxoguanosine] | 270 | 1.5 | 9045 ± 310 | 48,690 ± 1120 cpm/culture | 34,160 ± 780 cpm/culture | 37,490 ± 540 cpm/culture |  |  |  |  |  |  |  |  |  | 
2 | CCCCn1c(=O)n([C@@H]2O[C@H](CO)[C@@H](O)[C@H]2O)c2nc(N)[nH]c(=O)c21 [compound 23644, 7-Butyl-8-oxoguanosine] | 900 |  |  | 41,180 ± 410 cpm/culture | 33,220 ± 1330 cpm/culture | 30,720 ± 1030 cpm/culture | 1058 ± 154 | 118,886 ± 80,092 per micromole | 52,397 per micromole | about 100% |  |  |  |  |  | 
3 | C=CCSc1nc2c(=O)[nH]c(N)nc2n1[C@@H]1O[C@H](CO)[C@@H](O)[C@H]1O [compound 22300, 8-(2-propenylmercapto)guanosine] |  |  |  |  |  |  |  |  |  |  | 870 ± 70 | 490 ± 133 | 420 ± 105 | about equal adjuvanticity to that of 8MGuo | 16,400 ± 1130 cpm/culture | 2700 ± 130
